The results in this text go back to publication PMC11913368, “Antilipase activities of cultivated peppermint and rosemary essential oils: in vitro and in silico studies” (Turkish Journal of Biology, 2025).

Converted amounts (≈) assume the structure as drawn.

This assay concerns T1, Candida rugosa lipase (CRL).
T1 construct: gene LIP1
The assay is described as follows: p-nitrophenyl laurate hydrolysis, absorbance at […] nm. The following applies: substrate p-NPL, pH 7, 37 °C, 15 min preincubation with enzyme; reference compound. It counts as biochemical, Diutina rugosa.

For `CCCCCCCCCCC[C@@H](C[C@@H]1OC(=O)[C@H]1CCCCCC)OC(=O)[C@H](CC(C)C)NC=O` [Orlistat], the “IC50 value” came to 60 ± 0 µg/mL (≈ 121 µM).

As for `O=c1c(O)c(-c2ccc(O)c(O)c2)oc2cc(O)cc(O)c12` [Quercetin], the “IC50 value” turned out to be 320 ± 4 µg/mL (≈ 1060 µM).
